Patent publication US7737118B2, “Rotational intrathecal analgesia” (Omeros Corporation, priority 2001, dated 2010)

Columns and labels:
Type in all cases: in vivo
male Sprague-Dawley rats [1] = assay: Rat hindpaw withdrawal latency (HWL) to mechanical stimulation (Randall Selitto Test); conditions: for % Changes of HWL to Mechanical Stimulation 10 Minutes After Intrathecal Injection, Left: Left hindpaw; for % Changes of HWL to Mechanical Stimulation 10 Minutes After Intrathecal Injection, Right: Right hindpaw
male Sprague-Dawley rats [2] = assay: Rat hindpaw withdrawal latency (HWL) to thermal stimulation (hot-plate test, 52° C.); conditions: for % Changes of HWL to Thermal Stimulation 10 Minutes After Intrathecal Injection, Left: Left hindpaw; for % Changes of HWL to Thermal Stimulation 10 Minutes After Intrathecal Injection, Right: Right hindpaw
male Sprague-Dawley rats [3] = assay: Rat HWL study, both types of stimulation: analgesia and development of complete tolerance; conditions: drug alone, intrathecal every 12 hrs; mechanical and thermal HWL
Procedure: Experiments were performed on male Sprague-Dawley rats having a weight of 200-250 g. The rats were housed in cages with free access to food and water. Room temperature was maintained at 24±2° C. and a 12 hr light/dark cycle was maintained. All experiments were conducted according to the guidelines of the Committee on Animal Research at the University of California at San Francisco. Every effort was made to minimize animal suffering.
A polyethylene catheter (Intramedic PE 10) was permanently implanted intrathecally with the inner tip at L3 to L5 in each animal. Rats displaying movement disorders following placement of the catheter were not used in the study. […]
In the morphine only group, 8 μg morphine HCl was injected every 12 hrs until complete tolerance developed and in the nociceptin only group, 10 nmol nociceptin was injected every 12 hrs until complete tolerance developed. These doses were chosen from previous studies that determined an equianalgesic dosing for these two drugs. […]
The rats were trained with the testing conditions for five days prior to the experiments to decrease the stress response caused by handling and measurements and to obtain baseline responses. The hindpaw withdrawal latency (HWL) was measured for both thermal and mechanical stimulation. […] The HWLs were measured 15 min after the second intrathecal injection on a daily basis. […]

[4] = day 1, intrathecal every 12 hrs: 8 μg morphine, 10 nmol nociceptin, or rotated every two days
[5] = day 2, intrathecal every 12 hrs: 8 μg morphine, 10 nmol nociceptin, or rotated every two days
[6] = day 3, intrathecal every 12 hrs: 8 μg morphine, 10 nmol nociceptin, or rotated every two days
[7] = day 4, intrathecal every 12 hrs: 8 μg morphine, 10 nmol nociceptin, or rotated every two days
[8] = day 5, intrathecal every 12 hrs: 8 μg morphine, or morphine/nociceptin rotated every two days
[9] = day 6, intrathecal every 12 hrs: 8 μg morphine, or morphine/nociceptin rotated every two days
[10] = day 1, drug alone, intrathecal (morphine 8 μg or nociceptin 10 nmol every 12 hrs)

CN1CC[C@]23c4c5ccc(O)c4O[C@H]2[C@@H](O)C=C[C@H]3[C@H]1C5.Cl [Morphine, morphine HCl]
% Changes of HWL to Mechanical Stimulation 10 Minutes After Intrathecal Injection, Left (male Sprague-Dawley rats [1]; [4]): 53.99 ± 2.96%
% Changes of HWL to Mechanical Stimulation 10 Minutes After Intrathecal Injection, Left (male Sprague-Dawley rats [1]; [5]): 47.69 ± 2.54%
% Changes of HWL to Mechanical Stimulation 10 Minutes After Intrathecal Injection, Left (male Sprague-Dawley rats [1]; [6]): 33.85 ± 1.60%
% Changes of HWL to Mechanical Stimulation 10 Minutes After Intrathecal Injection, Left (male Sprague-Dawley rats [1]; [7]): 31.37 ± 2.02%
% Changes of HWL to Mechanical Stimulation 10 Minutes After Intrathecal Injection, Left (male Sprague-Dawley rats [1]; [8]): 15.30 ± 1.39%
% Changes of HWL to Mechanical Stimulation 10 Minutes After Intrathecal Injection, Left (male Sprague-Dawley rats [1]; [9]): 3.26 ± 1.86%
% Changes of HWL to Mechanical Stimulation 10 Minutes After Intrathecal Injection, Right (male Sprague-Dawley rats [1]; [4]): 56.04 ± 3.38%
% Changes of HWL to Mechanical Stimulation 10 Minutes After Intrathecal Injection, Right (male Sprague-Dawley rats [1]; [5]): 46.74 ± 2.52%
% Changes of HWL to Mechanical Stimulation 10 Minutes After Intrathecal Injection, Right (male Sprague-Dawley rats [1]; [6]): 33.44 ± 1.03%
% Changes of HWL to Mechanical Stimulation 10 Minutes After Intrathecal Injection, Right (male Sprague-Dawley rats [1]; [7]): 28.84 ± 2.73%
% Changes of HWL to Mechanical Stimulation 10 Minutes After Intrathecal Injection, Right (male Sprague-Dawley rats [1]; [8]): 16.54 ± 1.26%
% Changes of HWL to Mechanical Stimulation 10 Minutes After Intrathecal Injection, Right (male Sprague-Dawley rats [1]; [9]): 2.72 ± 1.94%
HWL increase using mechanical stimulation (male Sprague-Dawley rats [1]; [10]): ~55%
% Changes of HWL to Thermal Stimulation 10 Minutes After Intrathecal Injection, Left (male Sprague-Dawley rats [2]; [4]): 66.26 ± 2.20%
% Changes of HWL to Thermal Stimulation 10 Minutes After Intrathecal Injection, Left (male Sprague-Dawley rats [2]; [5]): 61.25 ± 3.05%
% Changes of HWL to Thermal Stimulation 10 Minutes After Intrathecal Injection, Left (male Sprague-Dawley rats [2]; [6]): 51.66 ± 1.73%
% Changes of HWL to Thermal Stimulation 10 Minutes After Intrathecal Injection, Left (male Sprague-Dawley rats [2]; [7]): 43.63 ± 1.38%
% Changes of HWL to Thermal Stimulation 10 Minutes After Intrathecal Injection, Left (male Sprague-Dawley rats [2]; [8]): 23.85 ± 1.03%
% Changes of HWL to Thermal Stimulation 10 Minutes After Intrathecal Injection, Left (male Sprague-Dawley rats [2]; [9]): −1.30 ± 2.36%
% Changes of HWL to Thermal Stimulation 10 Minutes After Intrathecal Injection, Right (male Sprague-Dawley rats [2]; [4]): 66.66 ± 1.51%
% Changes of HWL to Thermal Stimulation 10 Minutes After Intrathecal Injection, Right (male Sprague-Dawley rats [2]; [5]): 63.11 ± 0.64%
% Changes of HWL to Thermal Stimulation 10 Minutes After Intrathecal Injection, Right (male Sprague-Dawley rats [2]; [6]): 48.74 ± 2.40%
% Changes of HWL to Thermal Stimulation 10 Minutes After Intrathecal Injection, Right (male Sprague-Dawley rats [2]; [7]): 42.45 ± 1.70%
% Changes of HWL to Thermal Stimulation 10 Minutes After Intrathecal Injection, Right (male Sprague-Dawley rats [2]; [8]): 25.07 ± 2.07%
% Changes of HWL to Thermal Stimulation 10 Minutes After Intrathecal Injection, Right (male Sprague-Dawley rats [2]; [9]): 0.51 ± 1.61%
HWL increase using thermal stimulation (male Sprague-Dawley rats [2]; [10]): approximately 67%
day by which total/complete tolerance exists (male Sprague-Dawley rats [3]): 6 days
